The nature of this data set: Stability Test: storage, factor of decomposition determined by HPLC. It is filed as physicochemical. The protocol:
Used were 100 g of clathrate crystals comprising 3-formylcephem compound (1) and dimethylformamide prepared in Example 1 and 100 g of 3-formylcephem compound (1) prepared in Reference Example 1 (amorphous product). They were stored in a thermostatic chamber at 20 to 25° C. and in a refrigerator at 3 to 5° C. for a specified time to determine a factor of decomposition by high performance liquid chromatorgraphy (HPLC). It is clear from the table that the cephalosporin crystals of the invention scarcely causes decomposition and are excellent in stability.

Setting [1] is: stored in refrigerator at 3 to 5° C. for 48 days.
Setting [2] is: stored in thermostatic chamber at 20 to 25° C. for 14 days.

Regarding `COc1ccc(COC(=O)C2=C(C=O)CSC3C(NC(=O)Cc4ccccc4)C(=O)N23)cc1` (stereo not shown) [crystal, p-methoxybenzyl ester of 7-phenylacetamide-3-formyl-3-cephem-4-carboxylic acid], the “Decomposition rate (%)” value is, setting by setting: under setting [1], 0%; under setting [2], 2%.
Take `COc1ccc(COC(=O)C2=C(C=O)CSC3C(NC(=O)Cc4ccccc4)C(=O)N23)cc1` (stereo not shown) [amorphous product, p-methoxybenzyl ester of 7-phenylacetamide-3-formyl-3-cephem-4-carboxylic acid]: the “Decomposition rate (%)” value by setting is: under setting [1], 13%; under setting [2], 59%.
